Entries after “also recorded” stand apart in the source; their conditions may differ. Like-named read-outs stand apart in the source and are kept apart here.

In assay [1] the test system is CLB-PE. Kind of assay: Cell viability by resazurin assay, 72 h. The assay is classed as cell-based. Particulars: Homo sapiens.
Assay [2] relates to SK-N-AS. Kind of assay: Cell viability by resazurin assay, 72 h. The assay is classed as cell-based. To be noted: Homo sapiens.
The test system of assay [3] is SK-N-DZ. In words: Cell viability by resazurin assay, 72 h. In kind it is cell-based. To be noted: Homo sapiens.
Assay [4] relates to CLB-GE. Kind of assay: Cell viability by resazurin assay, 72 h. The assay is classed as cell-based. To be noted: Homo sapiens.
The subject of assay [5] is IMR32. In words: Cell viability by resazurin assay, 72 h. The assay is classed as cell-based, human. To be noted: ALK wt, MYCN amplified.
The subject of assay [6] is CLB-GAR. In words: Cell viability by resazurin assay, 72 h. The assay is classed as cell-based, human. Particulars: ALK R1275Q, MYCN nonamplified.
For assay [7], the system named is ALK-I1171T metastatic neuroblastoma. The assay is classed as in vivo, human. To be noted: for Primary tumor volume (MRI): ∼18.8 mL immediately before start.
For assay [8], the system named is SK-N-BE. Kind of assay: Cell viability by resazurin assay, 72 h. In kind it is cell-based. Particulars: Homo sapiens.
In assay [9] the test system is KELLY. In words: Cell viability by resazurin assay, 72 h. In kind it is cell-based, human. To be noted: ALK F1174L, amplified, MYCN amplified.
The test system of assay [10] is CLB-BAR. Kind of assay: Cell viability by resazurin assay, 72 h. The assay is classed as cell-based. To be noted: Homo sapiens.

For `Cc1cc(Nc2ncc(Cl)c(Nc3ccccc3S(=O)(=O)C(C)C)n2)c(OC(C)C)cc1C1CCNCC1` [ceritinib, 5-chloro-N2-(2-isopropoxy-5-methyl-4-(piperidin-4-yl)phenyl)-N4-(2-(isopropylsulfonyl)phenyl)pyrimidine-2,4-diamine], the IC50 in [1] is above 15000 nM; in assay [2], above 3000 nM; in assay [3], above 800 nM; in assay [4] it was 131 ± 24 nM; in [5] it was above 500 nM; in [5] (Homo sapiens, IMR-32, 72 h) it was above 350 nM. Further, the IC50 was 102 ± 16 nM in assay [6]; around 110 nM in assay [6] (Homo sapiens); above 1500 nM in assay [8]; 329 ± 36 nM in [9]; around 330 nM in [9] (Homo sapiens, Kelly); 36.1 ± 6.2 nM in [10]. The “Clinical evaluation (CT, MRI, MIBG scintigraphy)” value in assay [7] (21 mo after initiation of ceritinib, 1 yr after surgery) was “complete remission at all metastatic sites; also recorded: no residual tumor in the abdomen and complete resolution of metastases at all sites”. For the same compound, the “Primary tumor volume (MRI)” value in assay [7] (after 3 mo therapy) is on record as around 13.8 mL; in assay [7] (after 6 mo therapy, prior to surgery) it was around 10.6 mL. Besides, the “Decrease in size of primary tumor (MRI, volumetric)” value in assay [7] (after 6.5 mo of ceritinib treatment) is listed as −43.6%. The Clinical status result in [7] (after 34 mo of continuous ceritinib treatment) is “continuous complete remission”. For the same compound, in assay [7] (after the first 4-wk cycle, 450 mg/m^2 once daily), the Urinary catecholamines result is listed as “decreased to levels below the upper reference limit”. Moreover, the “Ki-67 positivity of resected tumor” value in [7] (tumor removed at 7.5 mo of treatment, 27% before treatment) is recorded as 5%.

As to `C[C@@H](Oc1cc(-c2cnn(C3CCNCC3)c2)cnc1N)c1c(Cl)ccc(F)c1Cl` [crizotinib], the IC50 in assay [1] was above 4000 nM; in [2], 353 ± 27 nM; in assay [3], above 4000 nM; in assay [4], 234 ± 18 nM; in [5], 349 ± 45 nM; in assay [5] (Homo sapiens, IMR-32, 72 h) it was above 350 nM. Moreover, the 50% inhibitory concentration (IC50) was above 1000 nM in assay [8]; 333 ± 78 nM in assay [9]; around 330 nM in assay [9] (Homo sapiens, Kelly); 54.9 ± 20 nM in assay [10].
